Source: ChEMBL document CHEMBL1143042, “Isolation and syntheses of polymethoxyflavones and hydroxylated polymethoxyflavones as inhibitors of HL-60 cell lines” (Bioorg Med Chem, 2007)
The source made the active and inactive calls. The calls are words filed in the database; no cut-off is given here.

Tests used:
Format in all cases: functional, cell-based
[1] = test system: HL-60; assay: Apoptotic activity in HL60 cells after 24 hrs; conditions: Homo sapiens, HL-60, 24 h
[2] = test system: PMN; assay: Cytotoxicity against human PMN cells at 100 uM
[3] = test system: HL-60; assay: Antiproliferative activity against HL60 after 24 hrs; conditions: Homo sapiens, HL-60, 24 h

| SMILES | IC50 [3] | AC50 [1] | Activity [2] |
| --- | --- | --- | --- |
| COc1ccc(-c2cc(=O)c3c(OC)c(OC)c(OC)c(OC)c3o2)cc1O | 52.7 µM | 94.6 µM | inactive |
| COc1ccc(-c2cc(=O)c3c(O)c(OC)c(OC)cc3o2)cc1OC | > 100 µM | > 100 µM | inactive |
| COc1c(OC)c(OC)c2c(=O)cc(-c3ccc(O)c(O)c3)oc2c1OC | 71.2 µM | > 100 µM | inactive |
| COc1ccc(-c2cc(=O)c3c(O)c(OC)c(OC)c(OC)c3o2)cc1 [GARDENIN B] | > 100 µM | > 100 µM | inactive |
| COc1cc(-c2cc(=O)c3c(O)c(OC)c(OC)c(OC)c3o2)cc(OC)c1OC [GARDENIN] | > 100 µM | > 100 µM | inactive |
| COc1ccc(-c2oc3c(OC)c(OC)c(OC)c(OC)c3c(=O)c2O)cc1OC [NATSUDAIDAI] | > 100 µM | 56.5 µM | inactive |
| COc1ccc(-c2cc(=O)c3c(OC)c(OC)c(OC)cc3o2)cc1OC [SINENSETIN] | > 100 µM | > 100 µM | inactive |
| COc1ccc(-c2cc(=O)c3c(OC)c(OC)c(OC)c(OC)c3o2)cc1 [TANGERETIN] | > 100 µM | > 100 µM | inactive |

The next compounds have a lower IC50 [3] than those just listed; values first:

| IC50 [3] | SMILES | AC50 [1] | Activity [2] |
| --- | --- | --- | --- |
| 47.4 µM | COc1cc(-c2cc(=O)c3c(OC)c(OC)c(OC)c(OC)c3o2)ccc1O | 87.1 µM | inactive |
| 4.16 µM | COc1ccc(-c2oc3c(OC)c(OC)c(OC)c(O)c3c(=O)c2OC)cc1OC | 5.9 µM | inactive |
| 13.3 µM | COc1ccc(-c2oc3c(OC)c(OC)c(OC)c(OC)c3c(=O)c2OC)cc1OC [3,5,6,7,8,3',4'-HEPTAMETHOXYFLAVONE] | 33.9 µM | inactive |
| 2.07 µM | COc1ccc(-c2cc(=O)c3c(O)c(OC)c(OC)c(OC)c3o2)cc1OC [5-DEMETHYLNOBILETIN] | 5.87 µM | inactive |
| 6.44 µM | COc1ccc(-c2oc3cc(OC)c(OC)c(O)c3c(=O)c2OC)cc1OC [ARTEMETIN] | 7.26 µM | inactive |
| 20.6 µM | COc1ccc(-c2oc3cc(OC)c(OC)c(OC)c3c(=O)c2OC)cc1OC [HEXAMETHOXYFLAVONE] | 92.1 µM | inactive |
| 41.5 µM | COc1ccc(-c2cc(=O)c3c(OC)c(OC)c(OC)c(OC)c3o2)cc1OC [NOBILETIN] | > 100 µM | inactive |
